What was measured:
Format in all cases: in vivo, New Zealand white rabbits
[1] = Toxicokinetic test: active compound in plasma after 14 days of eye drops; settings: for Concentration of active compound in plasma: 8.0 mg/ml eye drops, after 14 days of consecutive administration
Protocol: The rate of production of active pharmaceutical ingredients in plasma and exposure amount of the active pharmaceutical ingredients were detected after 14 days.
(§1) Male New Zealand white rabbits, aged 3 to 6 months, weighted 2.0 to 5.0 kg, purchased from Pizhou Oriental Breeding Co., Ltd.
After 14 days of consecutive administration, blood samples were collected at 0 hours (before administration) and at 0.5, 1, 2, 4, 8 and 24 hours after administration in the group of compound of formula (I) (8.0 mg/ml) at 14-15 days. Approximately 0.8 mL of whole blood was collected from the ear artery or the hindlimb saphenous vein (or other suitable site) of animal subjected to the toxicokinetic test and placed in a labeled blood collection tube with dipotassium EDTA (K2EDTA) as an anticoagulant. Plasma was obtained by centrifugation at 3000 rpm and 2° C. to 8° C. for 10 min within 60 minutes after blood collection. All samples were quantitatively detected for the content of the administrated compound in the plasma of the experimental animal by a liquid chromatography-mass spectrometry coupling technology.

[2] = Pharmacokinetic test in aqueous humor after eye drops; settings: eye drops 0.5 mg/eye
Description: The compound was a prodrug molecule containing an ester functional group, which can be hydrolyzed into an active drug molecule (parent drug) under the action of abundant ester hydrolase in the eye tissue when administered with eye drops. In this experiment, the production rate of the active pharmaceutical ingredients in vivo and the exposure amount of the active pharmaceutical ingredients were detected.
as §1
The used solvent was 1.2% hydroxypropyl methylcellulose E5/20.5% poloxamer P407/1.6% poloxamer P188.
The dosage of eye drops was 0.5 mg/eye, administrated in both eyes. Aqueous humor samples were collected at 0.25 h, 0.5 h, 2 h, 4 h, 8 h, and 24 h after administration. All samples were quantitatively detected by liquid chromatography coupled with mass spectrometry-mass spectrometry in the aqueous humor of the experimental animals. The measured concentration values were calculated by WinNonlin non-compartment model according to the concentration-time data of aqueous humor, such as half-life, peak concentration, peak time, unit exposure amount of aqueous humor, etc.

[3] = test system: New Zealand rabbits with normal intraocular pressure; experiment: Eye irritation response detection with hand-held slit lamp, 14 days eye drops; settings: 14 consecutive days, 50 μl/eye/day
Protocol: (§2) 42 male New Zealand white rabbits were randomly grouped into 7 groups according to body weights, 6 rabbits/group. Among the animals in Groups 1-7, the left eye was administrated dropwise with normal saline, and the right eye was administrated dropwise with a solvent/control/test article in an administration volume of 50 μL/eye respectively, once a day for 14 consecutive days, and the day of first administration was recorded as Day 1. The intraocular pressures of the animals were measured before administration on Day 1, as well as at 1 h, 2 h, 4 h, 6 h, 8 h and 10 h after administration on Day 1 (Table 10).
Animals were subjected to eye irritation response detection and fluorescein sodium detection (scored according to scoring criteria) in both eyes with a hand-held slit lamp before the start of test (Day −2/Day −1), before daily administration (Day 1 to Day 14), and at 1 h, 2 h, 4 h, 24 h, 48 h, and 72 h after the last administration (Day 14).
Animals were subjected to eye irritation response detection in both eyes with a handheld slit lamp on Day −2 to Day −1 before the start of test, before first administration every day (Day 1 to Day 14), and at 1 h, 2 h, 4 h, 24 h, 48 h, and 72 h after the last administration. The scoring criteria were as follows: […]

[4] = test system: New Zealand rabbits with normal intraocular pressure; experiment: Intraocular pressure reduction, normal intraocular pressure, Day 1 (Operation II); settings: for Average intraocular pressure in both eyes / Change in intraocular pressure: Day 1; for Change in intraocular pressure: vs negative controls
Description: An intraocular pressure reduction effect and potential ocular toxicity of the compound of formula (I) were inspected with rabbits with normal intraocular pressure by repeated administration of eye drops for 14 days.
Male New Zealand white rabbits, aged 97 to 127 days, weighted 2.6-3.5 kg, purchased from Pizhou Oriental Breeding Co., Ltd.
as §2

[5] = 4 mg/mL in right eye, 1 h after administration
[6] = 4 mg/mL in right eye, 2 h after administration
[7] = 4 mg/mL in right eye, 4 h after administration
[8] = 4 mg/mL in right eye, 6 h after administration
[9] = 4 mg/mL in right eye, 8 h after administration
[10] = 4 mg/mL in right eye, 10 h after administration
[11] = 4 mg/mL in right eye, before administration

Cc1ccc(C(=O)OCn2cc(C)c3c(S(=O)(=O)N4CC[C@H](N)C4)cccc3c2=O)c(C)c1 [Compound of formula (I)]
Concentration of active compound in plasma ([1]; Group 1, 0.00 h (before administration)): BQL
Concentration of active compound in plasma ([1]; Group 1, 8.00 h): BQL
Concentration of active compound in plasma ([1]; Group 1, 8.00 h, listed as compound of formula (I)): below the detection limit
Concentration of active compound in plasma ([1]; Group 1, 24.0 h): BQL
Concentration of active compound in plasma ([1]; Group 2, 0.00 h (before administration)): BQL
Concentration of active compound in plasma ([1]; Group 2, 8.00 h): BQL
Concentration of active compound in plasma ([1]; Group 2, 24.0 h): BQL
System safety (conclusion) ([1]; high dose of 8 mg/mL, from plasma metabolite concentration): high system safety
Exposure amount of the active drug (conclusion) [2]: significantly increased
Eye irritation (conclusion) ([3]; 0.25 to 4 mg/mL): no irritation
Average intraocular pressure in both eyes ([4]; 0.25 mg/mL in right eye, 1 h after administration): 6.22 mmHg
Average intraocular pressure in both eyes ([4]; 0.25 mg/mL in right eye, 2 h after administration): 6.17 mmHg
Average intraocular pressure in both eyes ([4]; 0.25 mg/mL in right eye, 4 h after administration): 6.67 mmHg
Average intraocular pressure in both eyes ([4]; 0.25 mg/mL in right eye, 6 h after administration): 8.06 mmHg
Average intraocular pressure in both eyes ([4]; 0.25 mg/mL in right eye, 8 h after administration): 9.72 mmHg
Average intraocular pressure in both eyes ([4]; 0.25 mg/mL in right eye, 10 h after administration): 10.95 mmHg
Average intraocular pressure in both eyes ([4]; 0.25 mg/mL in right eye, before administration): 9.84 mmHg
Average intraocular pressure in both eyes ([4]; 0.5 mg/mL in right eye, 1 h after administration): 5.39 mmHg
Average intraocular pressure in both eyes ([4]; 0.5 mg/mL in right eye, 2 h after administration): 5.50 mmHg
Average intraocular pressure in both eyes ([4]; 0.5 mg/mL in right eye, 4 h after administration): 6.95 mmHg
Average intraocular pressure in both eyes ([4]; 0.5 mg/mL in right eye, 6 h after administration): 8.94 mmHg
Average intraocular pressure in both eyes ([4]; 0.5 mg/mL in right eye, 8 h after administration): 9.89 mmHg
Average intraocular pressure in both eyes ([4]; 0.5 mg/mL in right eye, 10 h after administration): 11.56 mmHg
Average intraocular pressure in both eyes ([4]; 0.5 mg/mL in right eye, before administration): 9.22 mmHg
Average intraocular pressure in both eyes ([4]; 1.0 mg/mL in right eye, 1 h after administration): 5.56 mmHg
Average intraocular pressure in both eyes ([4]; 1.0 mg/mL in right eye, 2 h after administration): 5.39 mmHg
Average intraocular pressure in both eyes ([4]; 1.0 mg/mL in right eye, 4 h after administration): 6.67 mmHg
Average intraocular pressure in both eyes ([4]; 1.0 mg/mL in right eye, 6 h after administration): 7.33 mmHg
Average intraocular pressure in both eyes ([4]; 1.0 mg/mL in right eye, 8 h after administration): 10.50 mmHg
Average intraocular pressure in both eyes ([4]; 1.0 mg/mL in right eye, 10 h after administration): 10.89 mmHg
Average intraocular pressure in both eyes ([4]; 1.0 mg/mL in right eye, before administration): 9.17 mmHg
Average intraocular pressure in both eyes ([4]; 2.0 mg/mL in right eye, 1 h after administration): 8.11 mmHg
Average intraocular pressure in both eyes ([4]; 2.0 mg/mL in right eye, 2 h after administration): 5.84 mmHg
Average intraocular pressure in both eyes ([4]; 2.0 mg/mL in right eye, 4 h after administration): 6.06 mmHg
Average intraocular pressure in both eyes ([4]; 2.0 mg/mL in right eye, 6 h after administration): 7.11 mmHg
Average intraocular pressure in both eyes ([4]; 2.0 mg/mL in right eye, 8 h after administration): 9.00 mmHg
Average intraocular pressure in both eyes ([4]; 2.0 mg/mL in right eye, 10 h after administration): 10.05 mmHg
Average intraocular pressure in both eyes ([4]; 2.0 mg/mL in right eye, before administration): 9.72 mmHg
Average intraocular pressure in both eyes ([4]; 4.0 mg/mL in right eye, 1 h after administration): 6.61 mmHg
Average intraocular pressure in both eyes ([4]; 4.0 mg/mL in right eye, 2 h after administration): 5.84 mmHg
Average intraocular pressure in both eyes ([4]; 4.0 mg/mL in right eye, 4 h after administration): 5.72 mmHg
Average intraocular pressure in both eyes ([4]; 4.0 mg/mL in right eye, 6 h after administration): 6.61 mmHg
Average intraocular pressure in both eyes ([4]; 4.0 mg/mL in right eye, 8 h after administration): 8.39 mmHg
Average intraocular pressure in both eyes ([4]; 4.0 mg/mL in right eye, 10 h after administration): 10.67 mmHg
Average intraocular pressure in both eyes ([4]; 4.0 mg/mL in right eye, before administration): 10.00 mmHg
Efficacy of single administration (conclusion) ([4]; all tested doses (0.25 to 4.0 mg/mL), compared with K-115): better efficacy

C[C@H]1CNCCCN1S(=O)(=O)c1cccc2cncc(F)c12 [K-115, reference compound]
Eye irritation (conclusion) ([3]; 4 mg/mL): no irritation
Average intraocular pressure in both eyes [4, 5]: 5.50 mmHg
Change in intraocular pressure [4, 5]: −3.39 mmHg
Average intraocular pressure in both eyes [4, 6]: 7.06 mmHg
Change in intraocular pressure [4, 6]: −2.50 mmHg
Average intraocular pressure in both eyes [4, 7]: 9.00 mmHg
Change in intraocular pressure [4, 7]: −0.89 mmHg
Average intraocular pressure in both eyes [4, 8]: 9.17 mmHg
Change in intraocular pressure [4, 8]: −1.61 mmHg
Average intraocular pressure in both eyes [4, 9]: 10.61 mmHg
Change in intraocular pressure [4, 9]: 0.23 mmHg
Average intraocular pressure in both eyes [4, 10]: 12.33 mmHg
Change in intraocular pressure [4, 10]: 0.17 mmHg
Average intraocular pressure in both eyes [4, 11]: 10.17 mmHg
Change in intraocular pressure [4, 11]: 0.83 mmHg

Source: US12624017B2, “Salt form of isoquinolinone type compound as rock inhibitor and preparation method therefor” (GUANGZHOU OCUSUN OPHTHALMIC BIOTECHNOLOGY CO., LTD., priority 2020, dated 2026)
